According to patent US8623377B2, “Joint-homing peptides and uses thereof” (University of Maryland, Baltimore, priority 2011, dated 2014):

Assays:
[1] = test system: human synovial tissue engrafted s.c.; conditions: human synovial tissue engrafted s.c. in SCID mice; cited from earlier work
[2] = test system: HUVECs; experiment: Endothelial tube (tubule) formation on Matrigel with VEGF; format: cell-based, human; conditions: VEGF 10 ng/mL, peptide 0-100 μg/mL
Protocol: FIG. 4A: Draining lymph node leukocytes from arthritic rats were dye-tagged with PKH67 and injected i.v. into arthritic rats. One group of rats was left untreated, and the other groups were treated with ADK or NQR peptide. After 24 hours, the synovium-infiltrating cells (SICs) were harvested from the joints, subjected to cytospin, and analyzed by fluorescence microscopy (left). In parallel, another set of synovium-infiltrating cells were stained with PE-labeled anti-CD3 or anti-CD 11b/c+ antibody and analyzed by flow cytometry (right). FIG. 4B: HUVECs were cultured on Matrigel-coated wells for 24 hours in the presence of VEGF (10 ng/mL) and various concentrations (0-100 μg/mL) of NQR (left), ADK (center), and RGD (right) peptides. The branches of vessel-like tubes were counted. A reprensentative set of results is shown. *P<0.05, compared with the VEGF-alone control.
HUVECs (1×10^4) were cultured in 80 μL/well of growth factor-reduced Matrigel (BD Biosciences) in a 96-well plate in 100 μL/well of F-12K medium (with no supplements). These cells were then treated for 20 h with VEGF (R&D Systems) in the presence or absence of different concentrations of peptides (NQR, ADK, or RGD). Tubule formation was observed under a microscope, quantitated, and photographed.

[3] = test system: ERK1/2; experiment: VEGF-induced signaling in HUVECs, Western blot p-ERK1/2; format: cell-based, human; conditions: peptide 10, 50, 100 μg/mL 1 h, then VEGF 10 ng/mL 20 min
From the text: (§1) FIG. 6A: HUVECs were stimulated with VEGF and treated with the indicated concentrations of peptides. Phosphorylated ERK1/2 and Akt, as well as total ERK1/2 and Akt, were detected by Western blot analysis. FIG. 6B: Thereafter, p-ERK1/2 and p-Akt were quantified by densitometry, normalized to total ERK1/2 (left) and Akt (right), respectively, and compared with cells in serum-free medium. The results of a representative experiment from a set of three independent experiments are shown. *P<0.05, compared with the positive control.
(§2) HUVECs were grown in F-12K medium in the presence of endothelial cell growth supplement (ECGS) (BD Biosciences) and 15% FBS. Confluent cells were starved in basal medium (without ECGS and FBS) for 6 h. Then the cells were pretreated for 1 h with different concentrations (10, 50, and 100 μg/mL) of a peptide (NQR, ADK, or RGD) in fresh basal medium, followed by treatment with VEGF (10 ng/mL) for another 20 min. The conditional medium was discarded, and the cells were lysed using a lysis buffer containing protease inhibitors and phosphatase inhibitors. The cell lysate was then centrifuged, and the resulting supernatant was used for analysis of signaling molecules using specific antibodies to human pERK1/2, ERK1/2, pAkt, Akt, and GAPDH (Cell Signaling Technology) by Western blot analysis. The intensity of the bands in the gel was quantified by densitometry. The levels of p-ERK1/2 and p-Akt were normalized to total ERK1/2 and Akt, respectively, and compared with cells in serum-free medium.

[4] = test system: Akt; experiment: VEGF-induced signaling in HUVECs, Western blot p-Akt; format: cell-based, human; conditions: peptide 10, 50, 100 μg/mL 1 h, then VEGF 10 ng/mL 20 min
From the text: as §1, §2

[5] = test system: HUVECs attachment to vitronectin; experiment: Attachment of HUVECs to vitronectin; format: cell-based, human; conditions: peptide 30-800 μg/mL, 1 h on vitronectin-coated wells
Protocol: HUVECs were first suspended in F-12K medium containing the indicated concentrations of NQR, AK or RGD peptide and then incubated for 1 h in microtiter wells coated with vitronectin. The number of cells that attached to vitronectin was quantified. The results of three independent experiments are shown. *P<0.05, compared with the baseline control.
The attachment of HUVECs to vitrnectin was quantified as described (37, 38). Microtiter wells were coated overnight at 4° C. with 2 μg/mL of vitronectin (BD Biosciences). These wells were then blocked for 1 h at 37° C. with 10 mg/mL of BSA (Sigma-Aldrich). In parallel, HUVECs (1.5×10^5 cells/mL) suspended in F-12K medium containing 10% FBS were incubated for 15 min at 37° C. with different concentrations (30-800 μg/mL) of NQR, ADK, or RGD peptide. Thereafter, this cell suspension 100 μL/well) was added to the vitronectin-coated wells, followed by incubation at 37° C. for 1 h. After washing, the number of attached cells was determined using crystal violet (Fisher Scientific).

[6] = test system: adjuvant arthritis in Lewis rats; experiment: Antiarthritic activity in the adjuvant arthritis (AA) model, arthritic score; format: in vivo, Lewis rat
Protocol: FIG. 3A: Group of arthritic Lewis rats (n=4 per group) were injected with a peptide (AD, NQR, or RGD) or PBS i.v. on the days indicated by the arrows either at the onset or just after the onset of arthritis. The its were monitored regularly for the disease severity, presented as “arthritic score”. […] The sections were graded for histopathological features associated with arthritis. B, bone; C, cartilage, JS, joint space; SIC, synovium-infiltrating cells.
The synthetic peptide corresponding to the selected phage-encoded peptide was diluted in PBS and injected i.v. into Lewis rats beginning either at the onset or just after the onset of arthritis after Mtb injection. The peptide was injected to rats on alternate days at a dose of 1 or 2 mg/kg body weight. A total of three or four injections were given to each rat. Control animals received an equal volume of PBS. All rats were graded regularly for clinical signs of arthritis (36). The hind paws of these rats were harvested and processed for histopathological examination.
AA was induced in Lewis rats by immunizing them with 1 mg/rat of heat-killed M. tuberculosis H37Ra (Mtb; Difco) in 200 μL of mineral oil (Sigma-Aldrich) via s.c. injection at the base of the tail. Beginning on day 7 after immunization, the rats were observed regularly for signs of arthritis in the paws. The severity of arthritis was evaluated based on erythema and swelling as described previously. The highest score for each paw was 4, and the total maximum score for each rat was 16. The course of AA in the Lewis rat involved the following phases: incubation (days 0-8), onset (days 9-11), peak (days 15-18), and recovery (days 21-27).

[7] = target: T1, αvβ3 (Oryctolagus cuniculus, UniProt A0A5F9CTL5+A0A5F9D0E2); conditions: intra-articular injection, rabbits with antigen-induced arthritis; cited from earlier work
T1 construct: host or cells: rabbit joints in vivo (intra-articular injection)
T1 sequence (A0A5F9D0E2 30-1047): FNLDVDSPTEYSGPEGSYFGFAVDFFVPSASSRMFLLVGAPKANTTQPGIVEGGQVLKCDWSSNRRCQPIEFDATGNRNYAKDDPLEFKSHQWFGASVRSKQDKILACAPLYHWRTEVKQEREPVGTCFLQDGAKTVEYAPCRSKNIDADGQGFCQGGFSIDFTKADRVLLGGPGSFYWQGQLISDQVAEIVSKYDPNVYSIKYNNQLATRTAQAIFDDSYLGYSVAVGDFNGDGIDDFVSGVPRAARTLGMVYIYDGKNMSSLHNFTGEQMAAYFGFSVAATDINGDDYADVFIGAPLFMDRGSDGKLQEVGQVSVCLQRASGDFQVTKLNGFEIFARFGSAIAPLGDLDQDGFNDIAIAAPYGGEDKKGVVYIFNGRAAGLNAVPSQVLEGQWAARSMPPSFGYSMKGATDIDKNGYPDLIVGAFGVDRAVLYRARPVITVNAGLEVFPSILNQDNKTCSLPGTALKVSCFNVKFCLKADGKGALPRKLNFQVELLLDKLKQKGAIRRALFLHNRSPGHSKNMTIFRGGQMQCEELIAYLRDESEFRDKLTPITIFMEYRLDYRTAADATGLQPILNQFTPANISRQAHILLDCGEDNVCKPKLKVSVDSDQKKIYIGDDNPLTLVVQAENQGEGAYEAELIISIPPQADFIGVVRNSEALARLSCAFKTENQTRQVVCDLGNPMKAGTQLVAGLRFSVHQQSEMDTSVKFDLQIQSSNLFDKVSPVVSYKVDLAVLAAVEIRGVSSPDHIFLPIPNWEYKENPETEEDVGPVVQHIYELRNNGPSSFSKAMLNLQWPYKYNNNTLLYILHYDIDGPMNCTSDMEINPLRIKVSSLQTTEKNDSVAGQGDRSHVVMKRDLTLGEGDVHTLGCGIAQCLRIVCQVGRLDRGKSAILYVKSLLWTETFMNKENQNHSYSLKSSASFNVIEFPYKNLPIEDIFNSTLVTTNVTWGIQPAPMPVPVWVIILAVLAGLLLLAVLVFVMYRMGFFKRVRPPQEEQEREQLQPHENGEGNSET
T1 sequence (A0A5F9CTL5 1-785): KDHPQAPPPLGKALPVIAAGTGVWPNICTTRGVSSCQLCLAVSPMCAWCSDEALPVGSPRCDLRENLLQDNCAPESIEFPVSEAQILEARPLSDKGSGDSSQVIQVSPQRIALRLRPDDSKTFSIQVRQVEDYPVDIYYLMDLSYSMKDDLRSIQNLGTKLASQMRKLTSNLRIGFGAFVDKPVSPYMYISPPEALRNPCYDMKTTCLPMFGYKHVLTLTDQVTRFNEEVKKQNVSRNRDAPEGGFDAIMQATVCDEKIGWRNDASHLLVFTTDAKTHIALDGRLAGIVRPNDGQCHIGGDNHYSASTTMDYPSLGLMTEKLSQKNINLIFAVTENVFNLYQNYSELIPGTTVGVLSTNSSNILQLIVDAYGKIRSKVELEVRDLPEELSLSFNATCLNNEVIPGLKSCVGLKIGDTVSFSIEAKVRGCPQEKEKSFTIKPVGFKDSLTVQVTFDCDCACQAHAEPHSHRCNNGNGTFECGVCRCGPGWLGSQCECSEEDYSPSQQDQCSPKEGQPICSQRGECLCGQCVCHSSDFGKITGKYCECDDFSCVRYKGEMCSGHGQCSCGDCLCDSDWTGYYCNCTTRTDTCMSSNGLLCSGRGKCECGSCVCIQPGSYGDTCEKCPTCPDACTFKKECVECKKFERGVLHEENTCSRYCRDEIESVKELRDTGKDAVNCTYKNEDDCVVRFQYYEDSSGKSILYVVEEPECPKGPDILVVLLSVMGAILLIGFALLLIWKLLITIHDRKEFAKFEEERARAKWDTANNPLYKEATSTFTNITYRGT

Row | Substance | homing of peptide [1] | effect on endothelial cell tube formation [2] | effect on VEGF-induced pERK [3] | effect on VEGF-induced pAkt [4] | effect on attachment of HUVECs to vitronectin [5] | difference in arthritic score versus PBS/ADK ([6]; from day 15 to day 27 (FIG. 3A center)) | suppression of the arthritic process ([6]; i.v. injection around the time of onset of arthritis, 1 or 2 mg/kg on alternate days) | down-modulation of arthritis ([6]; injected just after the onset of AA) | effect on arthritis [7]
1 | CKSTHDRLC [literature peptide homing to human synovial tissue engrafted in SCID mice] | homing to the human synovial tissue | – | – | – | – | – | – | – | –
2 | CRNADKFPC (Synthetic peptide homing to joint in an animal) [ADK peptide, joint-homing phage-derived synthetic peptide] | – | had no effect | had no effect | had no effect | Neither peptide had any effect | – | – | – | –
3 | RGDfK [RGD peptide, reference compound] | – | inhibited tube formation | the opposite was observed | the opposite was observed | significantly inhibited cell attachment | significant | also suppressed arthritis | effective in down-modulating arthritis | –
4 | RGDfV | – | – | – | – | – | – | – | – | reduce clinical arthritis, synovial angiogenesis, and joint damage
